Experimental findings from patent US8658797B2, “Asymmetric ureas and medical uses thereof” (Helsinn Healthcare SA, priority 2011, dated 2014) are described below.

Bounds are passed on as bounds.

One experiment has as its system Male C57BL/6J mice. In words: Evaluation of GHSR1a antagonists on food intake test in mouse. It counts as in vivo. The conditions noted are these: for Mouse Food Intake effect: NSE: not significant effect. The protocol:
Male C57BL/6J mice, 18-22 g body weight, were fasted overnight (16 h before compound administration) and placed in a regular light dark cycle (6:00-18:00 light/18:00-6:00 dark). After 1 wk acclimation, animals were sorted into two groups (n=6 each, 2 per cage) based on body weight. Animals in group one were be treated with vehicle and animals in group 2 were treated with the test agent (n=6 for each group). The cumulative food intake was evaluated at 1, 2, 4, 8 and 24 hrs after drug or vehicle treatment. Food intake was measured by subtracting uneaten food from the initial premeasured food.

The target in experiment [1] is T1, GHSR-1a (Homo sapiens, UniProt Q92847).
T1 construct: expressed in transfected cells; host or cells: HEK293
In words: Calcium FLIPR assay, GHSR-1a antagonism (reduction of ghrelin response). It counts as cell-based. As to conditions: HEK293/GHSR1a cell line; ghrelin 10 nM; read-out: IC50 FLIPR antagonist Activity. The method, then: (§1) The intracellular calcium assay was carried out in a 384-well format FLIPR™ (Molecular Device) HEK293/GHSR1a cell line. Cells were seeded 24 hr prior to the experiments at an optimal density per well. Preincubation with selected calcium dye lasted for 30-60 min at room temperature or 37° C. Test compounds, dissolved in DMSO, were added at the appropriate time and incubated for 15 min followed by the addition of ghrelin with FlexStation or FLIPR. Relative fluorescence was monitored by the FLIPR™ Molecular Device. EC50 and IC50 values were estimated from dose-response data using GraphPad Prism software. To check for GHSR-1a agonism the compound was added at t=20 sec. and the calcium response was followed for 2 minutes. To check for GHSR-1a antagonism the compound and Ghrelin (10 nM) were added to the cells at t=20 sec. and the calcium response was measured for 2 minutes. The potency of the antagonist was calculated by its ability to reduce the ghrelin response. Dose-response curves were made for relevant antagonists.

Experiment [2] concerns the target T1, GHSR-1a. The experiment is described as follows: Calcium FLIPR assay, GHSR-1a agonism. The conditions noted are these: HEK293/GHSR1a cell line; read-out: EC50 FLIPR against Activity (EC50 part of μM/Emax). It counts as cell-based. The protocol: as §1
The mark [3] stands for this setting: Mus musculus, ip, 10 mg/kg i.p., at 1 hr.
Where [4] appears, read: Mus musculus, ip, 30 mg/kg i.p., at 1 hr.

T1 sequence (Q92847 whole entry): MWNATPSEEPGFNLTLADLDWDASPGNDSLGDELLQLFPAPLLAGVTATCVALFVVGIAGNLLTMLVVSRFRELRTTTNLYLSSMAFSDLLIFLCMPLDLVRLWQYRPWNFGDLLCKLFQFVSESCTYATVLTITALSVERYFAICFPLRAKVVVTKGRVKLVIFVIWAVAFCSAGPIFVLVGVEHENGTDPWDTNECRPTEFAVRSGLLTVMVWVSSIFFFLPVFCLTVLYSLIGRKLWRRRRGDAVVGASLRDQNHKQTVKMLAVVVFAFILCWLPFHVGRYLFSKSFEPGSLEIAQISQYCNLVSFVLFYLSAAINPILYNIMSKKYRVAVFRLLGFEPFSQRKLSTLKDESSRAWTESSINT

Turning to `COc1cccc(CN(C(=O)N[C@H](C)c2cccc(Cl)c2Cl)C2CCN(C)CC2C)c1` (stereo partly drawn), in the experiment on Male C57BL/6J mice (10 mg/kg i.p.), the “Mouse Food Intake effect” value was “NSE (10 mpk)”. On GHSR-1a [1], the half-inhibitory concentration (IC50) is 5 nM.

As to `CC(NC(=O)N(C)C1CCN(C)CC1)c1cccc(Cl)c1Cl` (stereo not drawn), in the experiment with Male C57BL/6J mice (10 mg/kg i.p.), the “Mouse Food Intake effect” value was “NSE (10 mg/kg)”. Further, at GHSR-1a [1], the half-maximal inhibitory concentration (IC50) worked out at 120 nM. In addition, the EC50 at GHSR-1a [2] was 0.009 µM.

Take `COc1ccc(C(C)NC(=O)N(C)C2CCN(C)CC2(C)C)c2ccccc12` (stereo not drawn): the “Mouse Food Intake effect” value with Male C57BL/6J mice (10 mg/kg i.p.) is “NSE (10 mg/kg)”. Moreover, the IC50 on GHSR-1a [1] was determined as 12 nM. The EC50 on GHSR-1a [2] stood at 0.01 µM.

Turning to `CC(NC(=O)N(Cc1ccccc1Cl)C1CCN(C)CC1)c1cccc(Cl)c1Cl` (stereo not drawn), the “Mouse Food Intake, duration of activity” value with Male C57BL/6J mice (3 mg/kg i.p., after 1 hr) is “no activity up to follow hrs”. The “Mouse Food Intake, activity up to” value with Male C57BL/6J mice (10 mg/kg i.p.) and in the experiment on Male C57BL/6J mice (30 mg/kg i.p.) was at most 24 h each time. In the experiment with Male C57BL/6J mice (Mus musculus, ip, 3 mg/kg i.p., at 1 hr), this compound yielded an inhibition in vivo at 3 mg/kg of 39%. The same compound yielded an inhibition in vivo at 10 mg/kg with Male C57BL/6J mice (setting [3]) of 95%. The same compound displayed an inhibition in vivo at 30 mg/kg with Male C57BL/6J mice (Mus musculus, ip, 30 mg/kg i.p., at 2 hr) of 70%. On GHSR-1a [1], the 50% inhibitory concentration (IC50) amounted to 38 nM.

In the case of `COc1ccc(C(C)NC(=O)N(O)C2CCN(C)CC2)c2ccccc12` (stereo not drawn), at GHSR-1a [2], the EC50 was 0.0021 µM.

Turning to `CC(NC(=O)N(Cc1ccccc1F)C1CCN(C)CC1(C)C)c1cccc(Cl)c1Cl` (stereo not drawn), in the experiment with Male C57BL/6J mice (10 mg/kg i.p.), the “Mouse Food Intake effect” value is “NSE (10 mg/kg)”. For the same compound, the IC50 at GHSR-1a [1] came out at 7 nM.

For `COc1ccc(C(C)NC(=O)N(OC)C2CCN(C)CC2)c(Cl)c1Cl` (stereo not drawn), the IC50 on GHSR-1a [1] amounted to 4 nM. On GHSR-1a [2], the EC50 worked out at 0.0082 µM.

In turn, `CC(NC(=O)N(Cc1cccc(F)c1)C1CCN(C)CC1)c1cccc(Cl)c1Cl` (stereo not drawn) came in with an inhibition in vivo at 10 mg/kg with Male C57BL/6J mice (setting [3]) of 44%. Besides, the half-maximal inhibitory concentration (IC50) at GHSR-1a [1] was 65 nM.

The compound `COc1ccc(C(CO)NC(=O)N(C)C2CCN(C)CC2)c2ccccc12` (stereo not drawn) showed an inhibition in vivo at 10 mg/kg in the experiment on Male C57BL/6J mice (setting [3]) of 47%. Besides, on GHSR-1a [1], the IC50 turned out to be 66 nM. Besides, at GHSR-1a [2], the EC50 was determined as 0.02 µM.

Consider `C[C@@H](NC(=O)N(Cc1ccccc1)C1CCN(C)CC1(C)C)c1cccc2ccccc12` (stereo partly drawn), for which the “Mouse Food Intake effect” value in the experiment with Male C57BL/6J mice (30 mg/kg i.p.) is “NSE (30 mg/kg)”. Further, the concentration for half-maximal inhibition (IC50) at GHSR-1a [1] is 5 nM. The EC50 at GHSR-1a [2] stood at 0.006 µM.

For the compound `COc1cccc(CN(C(=O)NC(C)c2cccc(Cl)c2Cl)C2CCN(C)CC2(C)C)c1` (stereo not drawn), the “Mouse Food Intake effect” value in the experiment on Male C57BL/6J mice (10 mg/kg i.p.) is “NSE (10 mg/kg)”. Moreover, the IC50 at GHSR-1a [1] was 5 nM.

In turn, `CC(NC(=O)N(Cc1ccccc1)C1CCN(C)CC1)c1cccc(Cl)c1Cl` (stereo not drawn) came in with an inhibition in vivo at 10 mg/kg in the experiment on Male C57BL/6J mice (setting [3]) of 47%. In addition, the IC50 at GHSR-1a [1] came out at 22 nM. In addition, the EC50 at GHSR-1a [2] was found to be 16.8 µM.

With `CN1CCC(N(C)C(=O)NC(COCc2ccccc2)c2cccc(Cl)c2Cl)CC1` (stereo not drawn), the “Mouse Food Intake effect” value in the experiment with Male C57BL/6J mice (3 mg/kg i.p.) is “NSE”. The “Mouse Food Intake, activity up to” value is at most 4 h in the experiment with Male C57BL/6J mice (10 mg/kg i.p.) and at most 2 h in the experiment on Male C57BL/6J mice (30 mg/kg i.p.). In the experiment with Male C57BL/6J mice (setting [3]), this compound displayed an inhibition in vivo at 10 mg/kg of 40%. In addition, testing at 30 mg/kg in the experiment on Male C57BL/6J mice (setting [4]) gave an inhibition in vivo of 50%. Also, the IC50 on GHSR-1a [1] came out at 70 nM.

For `COc1ccc(C(C)NC(=O)N(C)C2CCN(C)CC2(C)C)c(Cl)c1Cl` (stereo not drawn), the “Mouse Food Intake effect” value in the experiment with Male C57BL/6J mice (10 mg/kg i.p.) is reported as “NSE (10 mg/kg)”. In addition, on GHSR-1a [1], the IC50 amounted to 3 nM. Moreover, at GHSR-1a [2], the EC50 was 0.01 µM.

In the case of `CCN(C(=O)NC(CCc1cccc(OCc2cccnc2)c1)c1cccc2ccccc12)C1CCN(C)CC1` (stereo not drawn), the “Mouse Food Intake, activity up to” value in the experiment on Male C57BL/6J mice (10 mg/kg i.p.) is at most 24 h. The compound further came in with an inhibition in vivo at 10 mg/kg in the experiment on Male C57BL/6J mice (setting [3]) of 74%. The IC50 at GHSR-1a [1] worked out at 75 nM. Further, at GHSR-1a [2], the EC50 is 18.7 µM.

As for `CCN(C(=O)NC(C)c1cccc2ccccc12)C1CCN(C)CC1` (stereo not drawn), the “Mouse Food Intake, activity up to” value in the experiment with Male C57BL/6J mice (30 mg/kg i.p.) is at most 24 h. For the same compound, testing at 30 mg/kg in the experiment on Male C57BL/6J mice (setting [4]) gave an inhibition in vivo of 28%. For the same compound, the IC50 at GHSR-1a [1] is 320 nM.

Turning to `CC(NC(=O)N(C)C1CCN(C)CC1(C)C)c1cccc(Cl)c1Cl` (stereo not drawn), 10 mg/kg produced 26% inhibition in vivo in the experiment with Male C57BL/6J mice (setting [3]). On GHSR-1a [1], the concentration for half-maximal inhibition (IC50) stood at 12 nM.

On to `C[C@@H](NC(=O)N(C)C1CCN(C)CC1(C)C)c1cccc2ccccc12` (stereo partly drawn), for which the “Mouse Food Intake, activity up to” value with Male C57BL/6J mice (30 mg/kg i.p.) was at most 8 h. In the experiment with Male C57BL/6J mice (Mus musculus, ip, 30 mg/kg i.p., at 4 h), this compound returned an inhibition in vivo at 30 mg/kg of 47%. Further, at GHSR-1a [1], the IC50 was 21 nM. The EC50 on GHSR-1a [2] stood at 0.009 µM.

With `COc1ccc(C(C)NC(=O)N(C)C2CCN(C)CC2)c2ccccc12` (stereo not drawn), the “Mouse Food Intake effect” value in the experiment with Male C57BL/6J mice (10 mg/kg i.p.) was “NSE”. For the same compound, the “Mouse Food Intake, activity up to” value with Male C57BL/6J mice (30 mg/kg i.p.) was at most 24 h. The “Mouse Food Intake % increase food intake” value in the experiment on Male C57BL/6J mice (30 mg/kg i.p., at 1 hr) amounted to 70%. Further, the IC50 at GHSR-1a [1] came to 40 nM. On GHSR-1a [2], the EC50 worked out at 0.03 µM.

The compound `CN1CCC(N(C)C(=O)NC(CO)c2cccc3ccccc23)CC1` (stereo not drawn) returned an inhibition in vivo at 10 mg/kg in the experiment with Male C57BL/6J mice (Mus musculus, ip, 10 mg/kg i.p., 'at to 24 hrs') of 27%. At GHSR-1a [1], the 50% inhibitory concentration (IC50) was found to be 910 nM. Moreover, at GHSR-1a [2], the EC50 turned out to be 0.49 µM.
